The values that follow come from patent US7273856B2, “Linear basic compounds having NK-2 antagonist activity and formulations thereof” (Menarini Ricerche S.P.A., priority 2001, dated 2007).

This assay deals with T1, human NK-2 receptor (Homo sapiens, UniProt P21452).
T1 construct: expressed in transfected cells; host or cells: CHO (Chinese hamster ovary) cells, membranes
T1 sequence (P21452 1-398): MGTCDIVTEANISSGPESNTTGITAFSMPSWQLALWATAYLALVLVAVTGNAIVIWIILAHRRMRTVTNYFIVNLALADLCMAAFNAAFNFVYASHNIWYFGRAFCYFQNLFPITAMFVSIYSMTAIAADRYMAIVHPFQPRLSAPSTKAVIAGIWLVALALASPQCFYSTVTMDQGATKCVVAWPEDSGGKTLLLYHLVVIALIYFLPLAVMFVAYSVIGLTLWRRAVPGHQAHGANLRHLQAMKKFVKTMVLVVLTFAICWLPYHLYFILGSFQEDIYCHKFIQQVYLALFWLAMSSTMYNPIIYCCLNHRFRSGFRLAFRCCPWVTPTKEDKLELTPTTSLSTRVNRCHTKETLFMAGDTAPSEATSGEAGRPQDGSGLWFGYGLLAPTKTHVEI
Nature of the assay: binding test, affinity for the human NK-2 receptor, competition with [125I]NKA on transfected CHO cell membranes. The note with it: CHO cell membranes transfected with NK-2 receptor of human ileum; [125I]NKA 100 pM; 30 min, 20° C. As for the experimental part:
The evaluation of the antagonist activity on NK-2 receptors has been assessed by binding and functional tests according to that already described in literature in relation to NK-2 antagonists.
The test substances have been tested within a concentration range from 0.01 nM to 10 nM. At the end of the incubation time (30 min, 20° C.) the samples have been filtered and radioactivity has been determined using a gamma-counter.

Molecules are shown by their SMILES. Counter-ions that a name gives are not always drawn.

What is called pKi is −log10 of the Ki, conventionally taken in molar units. Molecule `CCCCN(CCCC)CCCNC(=O)[C@@H](Cc1ccccc1)NC(=O)C1(NC(=O)c2cc3ccccc3s2)CCCCC1` [Example 19, N^α[N^α(benzo[b]thiophen-2-yl-carbonyl)-1-aminocyclohexan-1-carboxy]-D-phenylalanine-N-{3-[bis(n-butyl)amino]propyl}amide] came in with a pKi of 8.9. On the same count and under the same terms, for `O=C(NC1(C(=O)N[C@H](Cc2ccccc2)C(=O)NCCCN2CCOCC2)CCCCC1)c1cc2ccccc2s1` [Example 20, N^α[N^α(benzo[b]thiophen-2-yl-carbonyl)-1-aminocyclohexan-1-carboxy]-D-phenylalanine-N-[3(morpholin-4-yl)propyl]amide] the value was 9.1. As usually defined, the Ki is a measure of affinity in units of concentration, obtained from inhibition or displacement. Low values mean tighter binding, high ones weaker binding. Take `O=C(N[C@]1(C(=O)N[C@H](Cc2ccccc2)C(=O)NCCCN2CCOCC2)CCc2ccccc21)c1cc2ccccc2s1` [Example 23, N^α[N^α(benzo[b]thiophen-2-ylcarbonyl)-1-(R)-amino-indan-1-carboxy]-D-phenylalanine-N-[3(morpholin-4-yl)propyl]amide]: the Ki is 2 nM. Still for that read-out and setting: for `NC1CCCCC1NC(=O)C1CCCC(NC(=O)[C@H](Cc2ccccc2)NC(=O)C2(NC(=O)c3cc4ccccc4s3)CCCC2)C1` (stereo partly drawn) [Example 26, acid-3-cis-N^γ{N^α[N^α(benzo[b]thiophen-2-ylcarbonyl)-1-aminocyclopentane-1-carboxy]-L-phenylalanil}aminocyclohexane-1-carboxylic-N-(2-cis-aminocyclohexyl) amide] the value was 0.0501 nM; for `N[C@@H]1CCCC[C@H]1NC(=O)[C@@H]1C[C@@H](NC(=O)[C@@H](Cc2ccccc2)NC(=O)C2(NC(=O)c3cc4ccccc4s3)CCCCC2)CN1` [Example 27, N^γ{N^α[N^α(benzo[b]thiophen-2-ylcarbonyl)-1-aminocyclohexane-1-carboxy]-D-phenylalanil}-(L-(4R)amino-proline-N-(1R,2R)-aminocyclohexyl) amide], 0.0631 nM.

Consider `N[C@@H]1CCCC[C@@H]1NC(=O)C1CCCC(NC(=O)[C@@H](Cc2ccccc2)NC(=O)C2(NC(=O)c3cc4ccccc4s3)CCCC2)C1` (stereo partly drawn) [Example 30, acid-3-cis-N^γ{N^α[N^α(benzo[b]thiophen-2-ylcarbonyl)-1-aminocyclopentane-1-carboxy]-D-phenylalanil}aminocyclohexane-1-carboxylic-N-[(1S,2R)-aminocyclohexyl]amide], for which the Ki is 0.1 nM. `N[C@H]1CCCC[C@@H]1NC(=O)C1CCCC(NC(=O)[C@@H](Cc2ccccc2)NC(=O)C2(NC(=O)c3cc4ccccc4s3)CCCC2)C1` (stereo partly drawn) [Example 31, acid-3-cis-N^γ{N^α[N^α(benzo[b]thiophen-2-ylcarbonyl)-1-aminocyclopentan-1-carboxy]-D-phenylalanil}aminocyclohexan-1-carboxylic-N-[(1S,2S)-aminocyclohexyl]amide]: the Ki is 0.0794 nM. As for `CN1CCN(C[C@@H]2CC[C@H](NC(=O)[C@@H](Cc3ccccc3)NC(=O)C3(NC(=O)c4cc5ccccc5s4)CCCC3)C2)CC1` [Example 32], the Ki is 1.26 nM.

For `CN1CCN(C(=O)[C@@H]2CC[C@H](NC(=O)[C@@H](Cc3ccccc3)NC(=O)C3(NC(=O)c4cc5ccccc5s4)CCCC3)C2)CC1` [Example 33, N^α[N^α(benzo[b]thiophen-2-ylcarbonyl)-1-aminocyclopentan-1-carboxy]-D-phenylalanine amide-N-[(1S,3R)-3-(4-(methyl)piperazin-1-yl)carbonyl)cyclopentane], the Ki is 0.631 nM.

`C[C@](Cc1ccccc1)(NC(=O)c1cc2ccccc2s1)C(=O)N[C@H](Cc1ccccc1)C(=O)NCCCN1CCOCC1` [Example 34, N^α[N^α(benzo[b]thiophen-2-ylcarbonyl)-D-α-methylphenylalanil]-D-phenylalanine-N-[3-(morpholin-4-yl)propyl]amide]: the Ki was 1.26 nM. Take `N[C@H]1CCCC[C@@H]1NC[C@@H]1CC[C@H](NC(=O)[C@@H](Cc2ccccc2)NC(=O)C2(NC(=O)c3cc4ccccc4s3)CCCC2)C1` [Example 38]: the pKi was found to be 9.5. Turning to `O=C(C=Cc1ccc(Cl)c(Cl)c1)NC1(C(=O)N[C@H](Cc2ccccc2)C(=O)NCCCN2CCOCC2)CCCC1` [Example 44, 1-[3-(3,4-dichlorophenyl)-acryloylamino]-cyclopentanecarboxylic acid, [1-(3-morpholin-4-yl-propylcarbamoyl)-2-(R)-phenyl-ethyl]-amide], the inhibition constant Ki was 0.794 nM. In the case of `CC1CN(CCCNC(=O)[C@@H](Cc2ccccc2)NC(=O)C2(NC(=O)c3cc4ccccc4s3)CCCCC2)CC(C)O1` (stereo partly drawn) [Example 48, Benzo[b]thiophene-2-carboxylic acid (1-{1-[3-(2,6-dimethyl-morpholin-4-yl)-propylcarbamoyl]-2-(R)-phenyl-ethylcarbamoyl}-cyclohexyl)-amide], the Ki was 0.398 nM. Same read-out and setting: with `O=C(C=Cc1ccc(Br)c(Br)c1)NC1(C(=O)N[C@H](Cc2ccccc2)C(=O)NCCCN2CCOCC2)CCCC1` [Example 50, 1-[3-(3,4-dibromophenyl)-acryloylamino]-cyclopentanecarboxylic acid [1-(3-morpholin-4-yl-propylcarbamoyl)-2-(R)-phenyl-ethyl]-amide] the figure was 0.398 nM. `CN1CCCN(CCCNC(=O)[C@@H](Cc2ccccc2)NC(=O)C2(NC(=O)c3cc4ccccc4s3)CCCC2)CC1` [Example 52, Benzo[b]thiophen-2-carboxylic acid, (1-{1(R)-[3-(4-methyl-[1,4]diazepan-1-yl)-propylcarbamoyl]-2-phenylethylcarbamoyl}-cyclopentyl)-amide TFA salt] showed a Ki of 2 nM.

As for `COC1CCN(CCCNC(=O)[C@@H](Cc2ccccc2)NC(=O)C2(NC(=O)c3cc4ccccc4s3)CCCC2)CC1` [Example 53, Benzo[b]thiophene-2-carboxylic acid (1-{1(R)-[3-(4-methoxy-piperidin-1-yl)-propylcarbamoyl]-2-phenyl-ethylcarbamoyl}-cyclopentyl)-amide TFA salt], the affinity corresponds to a Ki of 2.51 nM.

Molecule `O=C(NC1(C(=O)N[C@H](Cc2ccccc2)C(=O)NCCCN2CCC3(CC2)OCCO3)CCCC1)c1cc2ccccc2s1` [Example 55, Benzo[b]thiophene-2-carboxylic acid (1-{1(R)-[3-(1,4-dioxa-8-aza-spiro[4.5]dec-8-yl)-propylcarbamoyl]-2-phenyl-ethylcarbamoyl}-cyclopentyl)-amide TFA salt] showed a Ki of 1 nM. As to `C[C@@H]1CN(C(=O)CCNC(=O)[C@@H](Cc2ccccc2)NC(=O)C2(NC(=O)c3cc4ccccc4s3)CCCC2)C[C@H](C)N1` [Example 56, Benzo[b]thiophene-2-carboxylic acid (1-{1(R)-[3-(3,5-cis-dimethylpiperazin-1-yl)-3-oxo-propylcarbamoyl]-2-phenyl-ethylcarbamoyl}-cyclopentyl)-amide TFA salt], the Ki was 1.58 nM. Consider `O=C(NC1(C(=O)N[C@H](Cc2ccccc2)C(=O)NCCC(=O)N2CCN(c3ccccn3)CC2)CCCC1)c1ccc2cc(Br)ccc2c1` [Example 58, 6-Bromo-naphthalene-2-carboxylic acid (1-{1(R)-[3-oxo-3-(4-pyridin-2-yl-piperazin-1-yl)propylcarbamoyl]-2-phenyl-ethylcarbamoyl}-cyclopentyl)-amide TFA salt], for which the affinity corresponds to a Ki of 3.16 nM.

On to `O=C(NC1(C(=O)N[C@H](Cc2ccccc2)C(=O)NCCC(=O)N2CCN(CC3COCOC3)CC2)CCCC1)c1cc2ccccc2s1` [Example 62, Benzo[b]thiophene-2-carboxylic acid (1-{1(R)-[3-(4-[1,3]dioxan-5-ylmethyl-piperazin-1-yl)3-oxo-propylcarbamoyl]-2-phenyl-ethylcarbamoyl}-cyclopentyl)-amide TFA salt], for which affinity was put at a Ki of 2 nM. Molecule `NC1(C(=O)N2CCC(CNC(=O)[C@@H](Cc3ccccc3)NC(=O)C3(NC(=O)c4cc5ccccc5s4)CCCC3)CC2)CCCC1` [Example 63, Benzo[b]thiophene-2-carboxylic acid [1-(1(R)-{[1-(1-amino-cyclopentanecarbonyl)piperidin-4-ylmethyl]-carbamoyl}-2-phenyl-ethylcarbamoyl)-cyclopentyl]-amide] showed a Ki of 0.631 nM.

`N#CCN1CCN(C(=O)CCNC(=O)[C@@H](Cc2ccccc2)NC(=O)C2(NC(=O)c3cc4ccccc4s3)CCCC2)CC1` [Example 65, Benzo[b]thiophene-2-carboxylic acid (1-{1(R)-[3-(4-cyanomethyl-piperazin-1-yl)-3-oxo-propylcarbamoyl]-2-phenyl-ethylcarbamoyl}-cyclopentyl)-amide] had a Ki of 1 nM. Still for that read-out and setting: with `O=C(NC1(C(=O)N[C@H](Cc2ccccc2)C(=O)NC2CCN(CCC3CCOCC3)CC2)CCCC1)c1cc2ccccc2s1` [Example 68, Benzo[b]thiophene-2-carboxylic acid [1-(2-phenyl-1(R)-{1-[2-(tetrahydro-pyran-4-yl)-ethyl]-piperidin-4-ylcarbamoyl}-ethylcarbamoyl)-cyclopentyl]-amide TFA salt] the figure was 1.26 nM; with `CC(C)N1CCC(CNC(=O)[C@@H](Cc2ccccc2)NC(=O)C2(NC(=O)c3cc4ccccc4s3)CCCC2)CC1` [Example 70, Benzo[b]thiophene-2-carboxylic acid (1-{1-(R)-[(1-isopropyl-piperidin-4-ylmethyl)-carbamoyl]-2-phenyl-ethylcarbamoyl}-cyclopentyl)-amide], 1.58 nM.
